Literature values, collected in US20140323580A1, “P[…] DOSAGE FORM” (Pharmacorp CC, priority 2009, published 2014).
Where a name gives a salt, the structure may show the parent alone. Read-outs that look alike come from different tables or passages of the source.

| SMILES | solubility in alcohol | solubility in chloroform | solubility in ether | solubility in water | solubility in alcohol (HCl) | solubility in chloroform (HCl) | solubility in ether (HCl) | solubility in water (HCl) |
| --- | --- | --- | --- | --- | --- | --- | --- | --- |
| CC(C)(N)Cc1ccccc1 [Phentermine, α,α-dimethyl phenethylamine (phenyl-tertiary-butylamine)] | soluble | soluble | soluble | slightly soluble | – | – | – | – |
| CC(C)(N)Cc1ccccc1 [phentermine HCl] | – | – | – | – | very soluble | very soluble | insoluble | very soluble |
